Laboratory results: patent publication US6344351B2, “(R)-transaminase from arthrobacter” (Kaneka Corporation, priority 1995, dated 2002)

Key:
[1] = test system: transaminase (intracellular enzyme) of Arthrobacter sp. KNK168; assay: Activity of the transaminase (intracellular enzyme) against typical substrates of ω-aminotransferases; format: biochemical
[2] = test system: Arthrobacter species KNK168 strain; assay: Surfactants and fatty acids as reaction additives; (R)-DMA formation by cells; format: cell-based
Method: The cells obtained by culturing the Arthrobacter species KNK168 strain in the R medium were suspended in a reaction mixture containing 2% of 1-(3,4-dimethoxyphenyl)-2-propanone and 4% of (RS)-1-phenylethylamine. The surfactants and fatty acids shown in Table 6 were added thereto, and the mixture was reacted at 30° C. at a pH of 8.5 for 20 hours.

[3] = test system: (R)-form-specific transaminase of Arthrobacter sp. KNK168; assay: Reactivity of purified transaminase of present invention to amino compounds, pyruvic acid as amino acceptor; format: biochemical; set-up: Transaminase of Present Invention (Relative Activity: %), Substrate Specificity: concentration or dose not given beside the values; conditions: for Relative Activity (%) of amino compounds / Transaminase of Present Invention (Relative Activity: %), Substrate Specificity: purified enzyme; for Relative Activity (%) of amino compounds: 40 mM amino compound in substrate solution, 40 mM pyruvic acid, pH 8.3, 30° C., 1 hour, (R)-1-phenylethylamine = 100; for Transaminase of Present Invention (Relative Activity: %), Substrate Specificity / reactivity of amino compound: pyruvic acid as amino acceptor
Text: The differences with the ω-amino acid transaminase derived from Pseudomonas sp. F-1 (Agric. Biol. Chem., 42, 2363-2367 (1978), Agric. Biol. Chem., 43, 1043-1048 (1979), J. Biol. Chem., 258, 2260-2265 (1983)) which have been well studied among the ω-amino acid transaminases, and with the benzylamine transaminase of Okada et al. (Japanese Patent Laid-Open No. Hei 6-178685) are summarized and shown in Table 2. In a case of the transaminase action in the present invention, the data of the purified enzyme are used, and in cases of those by other two enzymes, the data of the purified enzymes which are disclosed in each of the literature publication and patent publication are used. Pyruvic acid is used as an amino acceptor in all cases.
Using the purified enzyme obtained in Example 9, reactivities to various amino compounds when using pyruvic acid as an amino acceptor were evaluated. 150 μl of a solution of the purified enzyme diluted ten-folds was added to 150 μl of a substrate solution (0.1 M potassium phosphate buffer (pH 8.3), 40 mM pyruvic acid, 0.1 mM pyridoxal phosphate, and 40 mM various amino compounds). The components were reacted at 30° C. for 1 hour. The reaction tube was transferred into boiling water to stop the reaction, and, thereafter, a part of the reaction mixture was diluted five-folds. Ten μl of 0.1 M boric acid buffer (pH 8.0) and 20 μl of an ethanol solution of 80 mM of 4-fluoro-7-nitro-2,1,3-benzoxadiazole (NBD-F) were added to 10 μl of the above-mentioned diluted reaction mixture. The components were reacted at 60° C. for 1 minute, and, thereafter, the reaction mixture was ice-cooled, and 460 μl of 5 mM HCl was added thereto. This reaction mixture was analyzed by high-performance liquid chromatography using fine pack C18-5 column and using a 0.1 M potassium phosphate buffer (pH 6.5) and CH3CN (90:10) as an eluent solution to detect formation of alanine-NBD using excitation wavelength of 470 nm and using detection wave of […]. The results thereof are shown in Table 8 in terms of relative activity in the case of using […] as a substrate.

[4] = test system: Arthrobacter species KNK168 strain; assay: Amino donor test; (R)-DMA formation by cultured cells; format: cell-based
Method: The cultured cells were harvested by centrifugation, and the harvested cells were suspended in a reaction mixture (pH 8.5) containing 1% of 1-(3,4-dimethoxyphenyl)-2-propanone, […] of Triton X-100, and 1% of an amino donor shown in Table 2. The components were reacted at 35° C. for 20 hours.

[5] = target: T1, ω-amino acid transaminase derived from Pseudomonas sp. F-1 (Pseudomonas putida, UniProt P28269); set-up: concentration or dose not given beside the values; conditions: purified enzyme, literature data; pyruvic acid as amino acceptor; cited from earlier work
T1 sequence (P28269 1-449): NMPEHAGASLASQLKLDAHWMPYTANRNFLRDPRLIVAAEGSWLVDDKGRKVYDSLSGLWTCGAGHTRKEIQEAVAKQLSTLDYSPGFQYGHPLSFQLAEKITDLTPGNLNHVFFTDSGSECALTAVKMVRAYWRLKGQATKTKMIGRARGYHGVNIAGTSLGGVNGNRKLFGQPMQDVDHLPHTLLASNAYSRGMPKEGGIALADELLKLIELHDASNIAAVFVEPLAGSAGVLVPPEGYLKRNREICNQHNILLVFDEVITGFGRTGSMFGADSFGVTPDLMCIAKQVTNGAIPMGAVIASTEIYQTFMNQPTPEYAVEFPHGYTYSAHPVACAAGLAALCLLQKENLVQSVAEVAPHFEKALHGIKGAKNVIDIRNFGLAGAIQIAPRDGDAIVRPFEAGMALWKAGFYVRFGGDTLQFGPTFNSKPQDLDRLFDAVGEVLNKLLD

[6] = test system: benzylamine transaminase of Okada et al.; set-up: Transaminase of Okada et al. (Relative Activity: %), Substrate Specificity: concentration or dose not given beside the values; conditions: cited from earlier work; for Transaminase of Okada et al. (Relative Activity: %), Substrate Specificity: purified enzyme, patent publication data, pyruvic acid as amino acceptor
[7] = amino acceptor 2-ketoglutaric acid, (R)-1-phenylethylamine/pyruvic acid control = 100
[8] = additive 0.1%, 2% ketone, 4% (RS)-1-phenylethylamine, 30° C., pH 8.5, 20 hours, no addition 28.1
[9] = additive 0.5%, otherwise as 0.1%
[10] = amino acceptor pyruvic acid, (R)-1-phenylethylamine control = 100
[11] = 1% amino donor, 1% 1-(3,4-dimethoxyphenyl)-2-propanone, Triton X-100, pH 8.5, 35° C., 20 hours

NCCS(=O)(=O)O [Taurine]
Relative Activity (%) as amino donor [1, 7]: 0%

CCCCCCCCCCCCOS(=O)(=O)[O-].[Na+] [Sodium dodecyl sulfate]
effect of additive on rate of reaction [2]: rate of reaction was increased | (R)-DMA Formed (%), additive [2, 8]: 45.3% | (R)-DMA Formed (%), additive [2, 9]: 42.2% | (R)-DMA Formed (%), additive ([2]; additive 1.0%): 46.3% | (R)-DMA Formed (%), additive ([2]; additive 2.0%): 50.1% | (R)-DMA Formed (%), additive ([2]; additive 3.0%): 51.9% | (R)-DMA Formed (%), additive ([2]; additive 4.0%): 53.1%

CCCCCC(C)N (stereo not drawn) [2-Heptylamine]
Relative Activity (%) of amino compounds [3]: 37%

N[C@H](CO)Cc1ccccc1 [L-Phenylalaninol]
Relative Activity (%) of amino compounds [3]: 0.8%

NCCC(N)C(=O)O (stereo not drawn) [α-2,4-Diaminobutyric acid]
Relative Activity (%) as amino donor [1, 10]: 0%

C[C@@H](N)c1ccccc1 [(R)-1-Phenylethylamine]
activity of the transferase to amino donor [1]: especially high activity | Relative Activity (%) as amino donor [1, 10]: 100% | Relative Activity (%) of amino compounds [3]: 100%

CC(N)c1ccccc1 (racemic) [(RS)-1-phenylmethylamine]
(R)-DMA Formed (%), amino group donor [4, 11]: 3.1%

CCCCN [n-Butylamine]
ω-Amino Acid Transaminase (Relative Activity: %), Substrate Specificity [5]: 60% | Transaminase of Okada et al. (Relative Activity: %), Substrate Specificity [6]: 0% | action of the transaminase derived from Arthrobacter on the substrate [3]: does not act | Transaminase of Present Invention (Relative Activity: %), Substrate Specificity [3]: 0%

NC(=O)CC(N)C(=O)O (racemic) [DL-Asparagine]
Relative Activity (%) as amino donor [1, 7]: 0%

Triton X-100
(R)-DMA Formed (%), additive [2, 8]: 31.6% | (R)-DMA Formed (%), additive [2, 9]: 34.0%

N[C@H](CO)c1ccccc1 [(S)-2-Phenylglycinol]
Relative Activity (%) of amino compounds [3]: 180% | reactivity of amino compound [3]: favorable reactivities

CCCCCCCCCCCCCCCC[N+](C)(C)C.[Br-] [Cetyl trimethyl ammonium bromide (CTAB), Cetyl trimethyl ammonium bromide]
(R)-DMA Formed (%), additive [2, 8]: 29.1%

NCCCCC(N)C(=O)O (racemic) [DL-Lysine]
Relative Activity (%) as amino donor [1, 7]: 0%

COc1ccc(C[C@@H](C)N)cc1OC [(R)-3,4-Dimethoxyaminopropane]
Relative Activity (%) of amino compounds [3]: 30%

CC(CN)c1ccccc1 (racemic) [(RS)-1-Amino-2-phenylpropane]
(R)-DMA Formed (%), amino group donor ([4]; pH 8.5): 1.8%

NCc1ccccc1 [Benzylamine]
ω-Amino Acid Transaminase (Relative Activity: %), Substrate Specificity [5]: 45% | action of benzylamine transaminase on substrate ([6]; in the presence of pyruvic acid): strongly acts | Transaminase of Okada et al. (Relative Activity: %), Substrate Specificity [6]: 100% | Relative Activity (%) of amino compounds [3]: 0.8% | Transaminase of Present Invention (Relative Activity: %), Substrate Specificity [3]: 0.8%

NCCC(=O)O [β-Alanine]
ω-Amino Acid Transaminase (Relative Activity: %), Substrate Specificity [5]: 100% | activity of the transferase to amino donor [1]: does not act | Relative Activity (%) as amino donor [1, 10]: 0% | Transaminase of Okada et al. (Relative Activity: %), Substrate Specificity [6]: 0% | action of the transaminase derived from Arthrobacter on the substrate [3]: does not act | Transaminase of Present Invention (Relative Activity: %), Substrate Specificity [3]: 0%

CC(N)CCc1ccccc1 (stereo not drawn) [3-Aminophenylbutane]
Relative Activity (%) of amino compounds [3]: 84% | reactivity of amino compound [3]: favorable reactivities

CCCCC/C=C\C/C=C\CCCCCCCC(=O)O [Linoleic Acid]
effect of additive on rate of reaction [2]: rate of reaction was increased | (R)-DMA Formed (%), additive ([2]; additive 2.9%): 45.1%

NCCc1ccccc1 [β-Phenethylamine]
ω-Amino Acid Transaminase (Relative Activity: %), Substrate Specificity [5]: 54% | Transaminase of Okada et al. (Relative Activity: %), Substrate Specificity [6]: 9% | Transaminase of Present Invention (Relative Activity: %), Substrate Specificity [3]: 0%

NCCCCN [Putrescine]
ω-Amino Acid Transaminase (Relative Activity: %), Substrate Specificity [5]: 55% | Relative Activity (%) as amino donor [1, 7]: 0% | Transaminase of Okada et al. (Relative Activity: %), Substrate Specificity [6]: 0% | action of the transaminase derived from Arthrobacter on the substrate [3]: does not act | Transaminase of Present Invention (Relative Activity: %), Substrate Specificity [3]: 0%

CCCCCCCC/C=C\CCCCCCCC(=O)O [Oleic Acid]
effect of additive on rate of reaction [2]: rate of reaction was increased | (R)-DMA Formed (%), additive ([2]; additive 2.9%): 44.9%

NCCCC(=O)O [4-Aminobutyric acid]
ω-Amino Acid Transaminase (Relative Activity: %), Substrate Specificity [5]: 40% | Relative Activity (%) as amino donor [1, 7]: 0% | action of the transaminase derived from Arthrobacter on the substrate [3]: does not act | Transaminase of Present Invention (Relative Activity: %), Substrate Specificity [3]: 0%

CC(N)CC(=O)O (racemic) [DL-3-Aminobutyric acid]
ω-Amino Acid Transaminase (Relative Activity: %), Substrate Specificity [5]: 96% | action of the transaminase derived from Arthrobacter on the substrate [3]: does not act | Transaminase of Present Invention (Relative Activity: %), Substrate Specificity [3]: 0%

CCCCCCC(C)N (stereo not drawn) [1-Methylheptylamine]
Relative Activity (%) of amino compounds [3]: 47%

CC(N)CO (racemic) [(RS)-2-Amino-1-propanol]
(R)-DMA Formed (%), amino group donor [4, 11]: 9.6%

CCCC(C)N (racemic) [(RS)-2-Aminopentane]
function as amino donor [4]: functioned as amino donors

NC(=O)CCC(N)C(=O)O (racemic) [DL-Glutamine]
Relative Activity (%) as amino donor [1, 7]: 0%

CC(N)c1cccc2ccccc12 (racemic) [(RS)-1-Naphthylethylamine]
(R)-DMA Formed (%), amino group donor [4, 11]: 34.2%

CCC(C)N (stereo not drawn) [1-Methylpropylamine]
Relative Activity (%) of amino compounds [3]: 1.2%
